Measurements published in patent US11406707B2, “STAT3 phosphorylation during graft-versus-host disease” (H. LEE MOFFITT CANCER CENTER AND RESEARCH INSTITUTE, INC., priority 2014, dated 2022).

Experiments:
Format in all cases: cell-based, human
T cells = assay: T-cell viability by Live/Dead staining in treated allo-MLRs
Description: Fluorochrome-conjugated mouse anti-human mAbs included anti-CD3, -CD4, -CD8, -CD25, -CD45RO, -CD107a, -CD127, -Foxp3, -pSTAT3/pY705, -pSTAT5/pY694, -IFN-, and -IL-17A (BD Biosciences, San Jose, Calif. USA; eBioscience; San Diego, Calif., USA; Invitrogen; Carlsbad, Calif., USA). Viability was assessed by Live/Dead staining (Invitrogen). Live events were acquired on FACSCalibur or LSRII (BD Biosciences) flow cytometers (FlowJo software, ver. 7.6.4; TreeStar, Ashland, Oreg., USA). Gates were defined by appropriate isotype controls. Naive T-cell sorting was performed on the FACSVantageDiVa (BD Biosciences). Where indicated, CD4^+ T cells were purified by magnetic-bead negative selection (Miltenyi Biotec, Auburn, Calif., USA).

Foxp3 TSDR = assay: iTreg Foxp3 demethylation assay; details: S3I-201 50 or 100 μM
Source text: iTreg Foxp3 demethylation assay. […] (2013) J. Immunol. 190, 3180-3188; Miyao, T., et al. (2012) Immunity 36, 262-275]. The degree of Foxp3 TSDR demethylation among iTregs from DMSO-treated allo-MLRs, purified nTregs, and Tconvs served as the controls [[…]., et al. (2013) Blood 122(13):2251-61]. For these experiments, iTregs and nTregs were sorted to select the CD4^+ CD25^+ CD127^- population. PCR products were amplified by using methylation or demethylation specific TSDR forward and reverse primers from bisulphate-treated genomic DNA of sorted natural Tregs. DNA fragments were cloned into a pCR2.1-Topo vector (Life Technologies, Grand Island, N.Y., USA) and verified by DNA sequencing. The following TSDR primers and probes were used for PCR: methylation forward [NT] ID NO:1), reverse [NT] ID NO:2), and hydrolysis probe [NT] (SEQ ID NO:3); and demethylation forward [NT] ID NO:4), reverse [NT] ID NO:5), and hydrolysis probe [NT] ID NO:6). Standards were diluted at concentrations ranging from 2^7 to 2^3 plasmid copies of each methylation or demethylation TSDR. Genomic DNA was isolated by using the DNeasy Blood and Tissue kit (Qiagen, Valencia, Calif., USA) from sorted natural or expanded iTregs. Genomic DNA (200-500 ng) was treated with bisulfite from the EZ DNA Methylation-Gold Kit (Zymo Research, Irvine, Calif., USA). […]

TH17 cells = assay: Evaluation of TH17 responses (CD4+ IL-17A+ T cells, IL-17A ELISA)
Description: To optimize the detection of IL-17A producing cells, nylon-wool-purified T cells underwent CD4^+ magnetic-bead selection. The CD4^+ T cells were cultured in triplicate with allogeneic, mature moDCs (DC:T cell ratio 1:30, 1×10^6 T cells/1 ml medium in a 48-well plate, 37° C.) and treated with S3I-201 (50 or 100 μM) or DMSO. The medium was supplemented with IL-6 (10^5 IU/ml), TGF-β (4 ng/ml), and anti-IFN-γ mAb (10 μg/ml) to support TH17 growth. The T cells were harvested and stimulated with PMA/ionomycin for 5 h, with GolgiStop Protein Transport Inhibitor (BD Biosciences) added after 1 h of activation. TH17 cells were identified by surface CD3 and CD4 expression, followed by intracellular staining for IL-17A. The absolute number of IL-17A-producing CD4^+ T cells was obtained by timed acquisition.
The concentration of IL-17A was measured (anti-human IL-17A [homodimer] ELISA Ready-Set-Go; eBioscience) in the supernatant of identically prepared and drug-treated CD4 T-cell allo-MLRs (DC:T cell ratio 1:30, 1.5×10^5 T cells per 125 μl medium in a 96-well plate, 37° C.). After 5 days, PMA/ionomycin was added directly to the cultures and stimulated for 5 h. GolgiStop was omitted from the PMA/ionomycin activation step, to permit detection of IL-17A in the culture supernatants. The supernatants were collected, and the IL-17A protein concentration was measured in triplicate, per the manufacturer's instructions.

CD8+ T cells = assay: Evaluation of CD8 CTL capacity (CD107a, IFN-γ); details: S3I-201 50 or 100 μM, day 5
Description: The naive CD8^+ T cells were purified by live cell sorting (CD4^− and CD45RO/CD25^−) and were stimulated with allogeneic moDCs (DC:T cell ratio of 1:30), with S3I-201 (50 or 100 μM) or DMSO added once on day 0. On day 5, the allosensitized CD8 T cells were harvested and stimulated with PMA/ionomycin in the presence of Golgi Stop and anti-CD107a, followed by surface CD8 and intracellular IFN-γ staining.

S6 ribosomal protein = assay: Akt-mTOR-S6 signaling in IL-2-stimulated donor T-cells; details: S3I-201 50 uM, 4 hours, IL-2 pulse
Description: T-cells were serum-starved in RPMI treated with DMSO diluent control, rapamycin 100 ng/ml (EMD Millipore, Billerica, Mass. USA), or STAT3 inhibitor S3I-201 50 uM (H. Lee Moffitt Cancer Center, Drug Discovery Core) for 4 hours. For the STAT3 experiments, the T-cells were first DC-allostimulated (DC:T-cell ratio of 1:30) for 3 days to optimize surface expression of IL-6 receptor alpha and STAT3 signaling among healthy volunteers. The T-cells were then cytokine-pulsed for 15 minutes with either IL-2 (R&D Systems) to activate the Akt-mTOR-S6 pathway, or IL-6 to stimulate STAT3 phosphorylation. The cells were then fixed and permeabilized as described, and then stained for CD3, CD4 (STAT3 experiments), phosphorylated STAT3 Y705, and phosphorylated S6.

[1] = S3I-201 50 or 100 μM, 5 day coculture with IL-6, TGF-β, anti-IFN-γ mAb

Cc1ccc(S(=O)(=O)OCC(=O)Nc2ccc(C(=O)O)c(O)c2)cc1 [S3I-201]
T-cell viability (T cells; S3I-201 50 μM): preserved
T-cell viability (viability staining) (T cells; S3I-201 100 μM): toxicity
iTreg Foxp3 demethylation compared with DMSO (Foxp3 TSDR): significantly enhanced
absolute numbers of CD4+, IL-17A+ T cells compared with DMSO (TH17 cells; [1]): significant reduction
frequency of CD4+, IL-17A+ T cells compared with DMSO (TH17 cells; [1]): significant reduction
IL-17A protein concentration in coculture supernatants (TH17 cells; S3I-201, 5 day coculture, ELISA): significant decrease
CTL potential vs DMSO control (CD8+ T cells): not significantly different
cytolytic potential by CD107a expression and intracellular IFN-γ production (CD8+ T cells): intact cytolytic potential
S6 activation (S6 ribosomal protein): modestly reduced
